# Tested on: A549 cells
# Assay: Confocal imaging of intracellular localization of fluorescein-labeled peptides
# Format: cell-based, human
# Conditions: 1 μM, 10 minutes, 37°C, confocal images
substance,measurement,value
H-GLFDIIKKIAESF-K(FAM)K5SKTKC(Far)-OMe [FAM-Memrasin],tethering on the PM,displays a clearer tethering on the PM

# Source: article PMC8145430 (Chemical Science, 2019)
